Data taken from patent US10155021B2, “Antimicrobial 4-oxoquinolizines” (Emergent Product Development Gaithersburg Inc., priority 2011, dated 2018).
≈ marks a conversion by molar mass, not a printed value. Read-outs that look alike come from different tables or passages of the source.

Assays:
[1] = test system: Acinetobacter sp. (H064200250); experiment: Preliminary MBC without and with sub-inhibitory polymyxin B (Example 4); assay type: cell-based; conditions: Acinetobacter, read-out: MBC without PB
Protocol: The plates were incubated for 18-20 hours at 37° C. The MBC was read as the lowest concentration at which colony growth was ca. 90% less than the positive control (i.e. usually where single colonies or no colonies were observed).

A. baumannii J2 = experiment: as above; assay type: cell-based, Acinetobacter baumannii; conditions: Acinetobacter baumannii, J2, read-out: MBC without PB
A. baumannii ATCC 19606 [2] = experiment: MIC determination for Acinetobacter strains (Example 3); assay type: cell-based; conditions: ATCC19606, reference strain
A. baumannii A390 [3] = experiment: MIC without and with sub-inhibitory polymyxin B (Example 4); assay type: cell-based, Acinetobacter baumannii; conditions: Acinetobacter baumannii, A390, A. baumannii A390, without polymyxin B, read-out: MIC without PB
A. baumannii A472 [4] = experiment: MIC determination for Acinetobacter strains (Example 3); assay type: cell-based; conditions: LEV R, CIP R, MRP I, IMP I, AMK R, TET R
A. baumannii A329 = experiment: Preliminary MBC without and with sub-inhibitory polymyxin B (Example 4); assay type: cell-based, Acinetobacter baumannii; conditions: Acinetobacter baumannii
[5] = test system: Acinetobacter sp. (H064200250); experiment: MIC without and with sub-inhibitory polymyxin B (Example 4); assay type: cell-based; conditions: Acinetobacter, without polymyxin B, read-out: MIC without PB
A. baumannii A489 [6] = experiment: MIC determination for Acinetobacter strains (Example 3); assay type: cell-based; conditions: LEV R, CIP R, MRP R, IMP R, AMK R, TET R
A. baumannii ATCC 19606 [7] = experiment: Preliminary MBC without and with sub-inhibitory polymyxin B (Example 4); assay type: cell-based, Acinetobacter baumannii; conditions: Acinetobacter baumannii, ATCC19606, read-out: MBC without PB, A. baumannii ATCC 19606, without polymyxin B, preliminary MBC
A. baumannii A390 [8] = experiment: as above; assay type: cell-based, Acinetobacter baumannii; conditions: Acinetobacter baumannii, A390, read-out: MBC without PB
A. baumannii A472 [9] = experiment: as above; assay type: cell-based, Acinetobacter baumannii; conditions: Acinetobacter baumannii, A472, read-out: MBC without PB, A. baumannii A472, without polymyxin B, 2nd experiment
A. baumannii A489 [10] = experiment: MIC without and with sub-inhibitory polymyxin B (Example 4); assay type: cell-based, Acinetobacter baumannii; conditions: Acinetobacter baumannii, A489, A. baumannii A489, without polymyxin B, read-out: MIC without PB
A. baumannii ATCC 19606 [11] = experiment: as above; assay type: cell-based, Acinetobacter baumannii; conditions: Acinetobacter baumannii, ATCC19606, A. baumannii ATCC 19606, without polymyxin B, read-out: MIC without PB
A. baumannii A390 [12] = experiment: MIC determination for Acinetobacter strains (Example 3); assay type: cell-based; conditions: LEV R, CIP R, MRP R, IPM I, AMK R, TET I
A. baumannii A401 [13] = experiment: Preliminary MBC without and with sub-inhibitory polymyxin B (Example 4); assay type: cell-based, Acinetobacter baumannii; conditions: Acinetobacter baumannii, A401, read-out: MBC without PB
A. baumannii A489 [14] = experiment: as above; assay type: cell-based, Acinetobacter baumannii; conditions: Acinetobacter baumannii, A489, read-out: MBC without PB, A. baumannii A489, without polymyxin B, 2nd experiment
A. baumannii A473 [15] = experiment: MIC determination for Acinetobacter strains (Example 3); assay type: cell-based; conditions: LEV R, CIP R, MRP R, IMP R, AMK R, TET R
A. baumannii A401 [16] = experiment: MIC without and with sub-inhibitory polymyxin B (Example 4); assay type: cell-based, Acinetobacter baumannii; conditions: Acinetobacter baumannii, A401, A baumannii A 401; without polymyxin B; 2nd experiment; visual reading; read-out: MIC without PB
[17] = test system: 11 strains of A. baumannii and one strain of Acinetobacter sp.; experiment: Preliminary MBC without and with sub-inhibitory polymyxin B, whole panel (Example 4; also strains not listed separately); assay type: cell-based; conditions: Acinetobacter baumannii
A. baumannii A473 [18] = experiment: MIC without and with sub-inhibitory polymyxin B (Example 4); assay type: cell-based, Acinetobacter baumannii; conditions: Acinetobacter baumannii, A473, A. baumannii A473; without polymyxin B; 1st experiment; read-out: MIC without PB
[19] = test system: resistant strains of A. baumannii and one strain of Acinetobacter sp.; experiment: MIC without and with sub-inhibitory polymyxin B, whole panel / MIC ranges (Example 4; also strains not listed separately); assay type: cell-based; conditions: for MIC: Acinetobacter baumannii, without polymyxin B, 2nd experiment
[20] = test system: Acinetobacter spp. H064200250; experiment: MIC determination for Acinetobacter strains (Example 3); assay type: cell-based, Acinetobacter sp.; conditions: LEV R, CIP R, MRP R, IMP I
A. baumannii A472 [21] = experiment: MIC without and with sub-inhibitory polymyxin B (Example 4); assay type: cell-based, Acinetobacter baumannii; conditions: Acinetobacter baumannii, A472, A. baumannii A472, without polymyxin B, read-out: MIC without PB
B. anthracis = experiment: microbe, parasite or virus in culture; assay type: cell-based; conditions: Bacillus anthracis, read-out: MIC B. anthracis
B. pseudomallei = experiment: microbe, parasite or virus in culture; assay type: cell-based; conditions: Burkholderia pseudomallei, read-out: MIC B. pseudomallei
B. abortus = experiment: microbe, parasite or virus in culture; assay type: cell-based; conditions: Brucella abortus, read-out: MIC B. abortus
F. tularensis = experiment: microbe, parasite or virus in culture; assay type: cell-based; conditions: Francisella tularensis, read-out: MIC F. tularensis

## COc1c(N2C[C@@H]3CCCN[C@@H]3C2)c(F)cc2c(=O)c(C(=O)O)cn(C3CC3)c12 [Moxifloxacin, reference compound]
[1]
  MBC: 16 µg/mL (≈ 39.9 µM)
A. baumannii J2
  MBC: 32 µg/mL (≈ 79.7 µM)
A. baumannii ATCC 19606 [2]
  MIC: 0.5 µg/mL (≈ 1.25 µM)
A. baumannii A390 [3]; 1st experiment
  MIC: 16 µg/mL (≈ 39.9 µM)
A. baumannii A390 [3]; 2nd experiment, visual reading
  MIC: 16 µg/mL (≈ 39.9 µM)
A. baumannii A472 [4]
  MIC: 16 µg/mL (≈ 39.9 µM)
A. baumannii A329; A329, read-out: MBC without PB, A. baumannii A329, without polymyxin B, 1st experiment
  MBC: 64 µg/mL (≈ 159 µM)
A. baumannii A329; A329, read-out: MBC without PB, A. baumannii A329, without polymyxin B, 2nd experiment
  MBC: 32 µg/mL (≈ 79.7 µM)
[5]; Acinetobacter spp. H064200250 (OXA51), 2nd experiment, visual reading
  MIC: 16 µg/mL (≈ 39.9 µM)
[5]; Acinetobacter spp. H064200250, 1st experiment
  MIC: 16 µg/mL (≈ 39.9 µM)
A. baumannii A489 [6]
  MIC: 16 µg/mL (≈ 39.9 µM)
A. baumannii ATCC 19606 [7]; 2nd experiment
  MBC: 1 µg/mL (≈ 2.49 µM)
A. baumannii ATCC 19606 [7]; 1st experiment
  MBC: 0.5 µg/mL (≈ 1.25 µM)
A. baumannii A390 [8]
  MBC: 16 µg/mL (≈ 39.9 µM)
A. baumannii A472 [9]
  MBC: 16 µg/mL (≈ 39.9 µM)
A. baumannii A489 [10]; 1st experiment
  MIC: 16 µg/mL (≈ 39.9 µM)
A. baumannii A489 [10]; 2nd experiment, visual reading
  MIC: 16 µg/mL (≈ 39.9 µM)
A. baumannii ATCC 19606 [11]; 1st experiment
  MIC: 0.5 µg/mL (≈ 1.25 µM)
A. baumannii ATCC 19606 [11]; 2nd experiment, visual reading
  MIC: 1 µg/mL (≈ 2.49 µM)
A. baumannii A390 [12]
  MIC: 16 µg/mL (≈ 39.9 µM)
A. baumannii A401 [13]
  MBC: 16 µg/mL (≈ 39.9 µM)
A. baumannii A489 [14]
  MBC: 16 µg/mL (≈ 39.9 µM)
A. baumannii A473 [15]
  MIC: 16 µg/mL (≈ 39.9 µM)
A. baumannii A401 [16]
  MIC: 16 µg/mL (≈ 39.9 µM)
[17]; NCTC13301, read-out: MBC without PB, A. baumannii NCTC 13301, without polymyxin B, 1st experiment
  MBC: 32 µg/mL (≈ 79.7 µM)
[17]; NCTC13301, read-out: MBC without PB, A. baumannii NCTC 13301, without polymyxin B, 2nd experiment
  MBC: 64 µg/mL (≈ 159 µM)
[17]; read-out: MBC without PB, A. baumannii A14, without polymyxin B, 1st experiment
  MBC: 32 µg/mL (≈ 79.7 µM)
[17]; read-out: MBC without PB, A. baumannii A14, without polymyxin B, 2nd experiment
  MBC: 32 µg/mL (≈ 79.7 µM)
A. baumannii A473 [18]
  MIC: 16 µg/mL (≈ 39.9 µM)
[19]
  fold greater activity (fold lower MIC) in presence of polymyxin B compared to without polymyxin B: not significantly affected
[19]; NCTC13301, A. baumannii NCTC 13301, visual reading, read-out: MIC without PB
  MIC: 64 µg/mL (≈ 159 µM)
[19]; 11 strains, read-out: MIC range without PB 14-10-2008 n = 11
  MIC: 8 to 64 µg/mL (≈ 19.9 to 159 µM)
[20]
  MIC: 16 µg/mL (≈ 39.9 µM)
A. baumannii A472 [21]; 1st experiment
  MIC: 16 µg/mL (≈ 39.9 µM)
A. baumannii A472 [21]; 2nd experiment, visual reading
  MIC: 16 µg/mL (≈ 39.9 µM)

## Cc1c(-c2cccc(N)c2)ccn2c(=O)c(C(=O)O)cc(C3CC3)c12 [Compound 9, 8-(3-amino-phenyl)-1-cyclopropyl-9-methyl-4-oxo-quinolizine-3-carboxylic acid]
B. anthracis
  MIC: 0.06 µg/mL (≈ 0.179 µM)
B. pseudomallei
  MIC: 0.5 µg/mL (≈ 1.5 µM)
B. abortus
  MIC: 0.25 µg/mL (≈ 0.748 µM)
F. tularensis
  MIC: 0.125 µg/mL (≈ 0.374 µM)
